Experiments:
Assay type in all cases: cell-based
[1] = system: α2β3 GABAAR co-expressed with human UT; assay: Patch-clamp of Iso-evoked current in CHO-UT expressing α2β3 GABAAR; conditions: hUII 10^−13 to 10^−7 M; Iso 10^−4 M, 2 s; −60 mV
Procedure: (§1) CHO-K1 cell lines were obtained from American Type Culture Collection (Manassas, VA, USA). The human UT stable CHO (CHO-UT) was generously provided by Dr Christophe Dubessy (Inserm, Rouen University, France) et generated by CHO electroporation with 20 µg pIRES-neo2-UT DNA and 500 µg sterile sonicated salmon sperm DNA using the EasyJect One electroporation system (Equibio, Angleur, Belgium), followed by repetitive rounds of limiting dilution of cells in G-418 (400 µg/ml) for selection. Normal or stable CHO was grown in Ham-F12 medium supplemented with 10% FBS, 1% antibiotic-antimicotic solution and 2 mM glutamine, at 37°C in a humidified incubator with an atmosphere of 5% CO2. The stable CHO-UT medium was supplemented with the antibiotic G-418 (40 µg/ml).
(§2) For transfection, cells were trypsinized (0.05%), triturated in HamF-12 containing 10% FBS media, pelleted by centrifugation, resuspended in 100 µl solution V for nucleofection by an Amaxa Nucleofector Device (Köln, Germany; set to program U-016). Experiments were performed on normal CHO or on the stable CHO-UT cells and transiently transfected with combinations of cDNA encoding α2β3γ2, α2β3γ1, α2β1γ2, α2β3γ1, α2β3, β3γ2 (4 µg of cDNA total/transfection) GABAAR subunits. Cells were seeded on 14-mm poly-L-lysine-coated glass bottom insert dishes at 5×10^5 cells in a volume of 0.5 ml/dish. […]

γ2^HA GABAAR subunit = assay: Cell surface ELISA of γ2^HA GABAAR subunit in CHO-UT^c-myc-α2β3γ2^HA; conditions: hUII 10^−8 M, 30 min, 37°C, 5 to 7 independent experiments in triplicates
Procedure: Cells were plated at 50 000 cells/well in 96-well plates coated with 0.1 mg/ml poly-L-ornithine (Sigma-Aldrich). […] Cells were fixed with 4% PFA in PBS for 5 min at RT, washed in PBS, and then permeabilized in 0.05% triton X100 (only for permeabilized cells) and non specific binding were blocked with PBS containing 1% FBS for 30 min at RT. The first rat anti-HA monoclonal antibody (0.5 µg/ml, 3F10 clone, Roche, Meylan, France or 1 µg/ml, Santa-Cruz), mouse anti-c-myc monoclonal antibody (1.33 µg/ml, 9E10 clone, Roche), rabbit anti-UT antibody (1 µg/ml, Tebu, Santa-Cruz) or rabbit anti-β3 antibody (1∶200, Abcam, Paris, France), were added for 1 h30 at RT. Incubation with goat anti-rat (Thermo scientific, Fisher, Brebières, France), goat anti-mouse (Santa Cruz) or goat anti-rabbit (Tebu, Santa Cruz) conjugated alkaline phosphatase diluted at 1∶1000 in PBS/FBS was carried out for 30 min at RT. The cells were washed four times with PBS, a colorimetric alkaline phosphatase substrate was added (SuperSignal ELISA, Thermo scientific, Fisher) and the resulting color reaction was measured using a Viktor multilabel plate reader (PerkinElmer, Courtaboeuf, France). Background absorbance from samples transfected with non-tagged receptors or from cells without first antibodies were systematically measured. […] All experiments were done at least three times in triplicates.

[2] = system: β3 GABAAR subunit in human U87 glioma; assay: Cell surface ELISA of β3 GABAAR subunit in U87 glioma; conditions: hUII 10^−8 M, 30 min, 37°C, at least 3 independent experiments in triplicates
Procedure: The human cell line from glioblastoma U87 was obtained from the American Type Culture Collection (LGC Standards, Molsheim, France). U87 cells were maintained in DMEM containing 10% FBS and 1% sodium pyruvate. NHA-Astrocytes (Lonza, Walkersville, MD, USA) were cultivated in DMEM culture medium supplemented with 2 mM glutamine, 5 mM HEPES, 1% non essential amino acids, 1% sodium pyruvate, B27, 25 ng/ml EGF, 1% of the antibiotic-antimycotic solution and 10% FBS. All cells were incubated at 37°C in a humidified atmosphere containing 5% CO2. Culture media were replaced every three days.
Cells were plated at 50 000 cells/well in 96-well plates coated with 0.1 mg/ml poly-L-ornithine (Sigma-Aldrich). […] Cells were fixed with 4% PFA in PBS for 5 min at RT, washed in PBS, and then permeabilized in 0.05% triton X100 (only for permeabilized cells) and non specific binding were blocked with PBS containing 1% FBS for 30 min at RT. […] The cells were washed four times with PBS, a colorimetric alkaline phosphatase substrate was added (SuperSignal ELISA, Thermo scientific, Fisher) and the resulting color reaction was measured using a Viktor multilabel plate reader (PerkinElmer, Courtaboeuf, France). Background absorbance from samples transfected with non-tagged receptors or from cells without first antibodies were systematically measured. […]

[3] = system: GABAAR subunit combinations co-expressed with human UT; assay: Patch-clamp of GABA current in CHO co-expressing human UT and combinations of GABAAR subunits
Procedure: as §1, §2

Row | Substance | Inhibitory effect on Iso-evoked current, α2β3 [1] | Loss of γ2^HA subunit from the cell surface (γ2^HA GABAAR subunit) | β3-associated GABAAR subunit internalization, without UT319–389 [2] | Activity on αβ binary complexes [3] | Depression of GABA current, order of subunit combinations [3]
1 | ETPDCFWKYCV (disulfide) [hUII, human urotensin II, synthesized by solid phase methodology] | totally ineffective | approximately 40% | 20% |  | 
2 | UII: Urotensin II, species not stated at that place (rUII in astrocytes, hUII in CHO and human cells) |  |  |  | inactive | markedly depressed the GABA current (β3γ2>α2β3γ2>α2β1γ2)
